Measured values reported in US20230348426A1, “OXOPYRROLIDINE FPR2 AGONISTS” (Bristol-Myers Squibb Company, priority 2020, published 2023).

Legend:
human FPR2 = human FPR2 (Homo sapiens (Human), UniProt P25090); experiment: FPR2 cyclic adenosine monophosphate (cAMP) assay; format: cell-based; conditions: CHO cells overexpressing human FPR2; forskolin 5 µM; inhibition of cAMP production; read-out: hFPR2 cAMP2 EC50
In short: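 CHO cells overexpressing human FPR2 (2,000/well) incubated 30 min at room temperature with compound (0.020 nM–100 µM, 1% DMSO), 5 µM forskolin and 200 µM IBMX.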

human FPR1 = human FPR1 (Homo sapiens (Human), UniProt P21462); experiment: FPR1 cyclic adenosine monophosphate (cAMP) assay; format: cell-based; conditions: CHO cells overexpressing human FPR1; forskolin 10 µM; inhibition of cAMP production; read-out: hFPR1 cAMP EC50
Sequence of human FPR1 (P21462 whole entry): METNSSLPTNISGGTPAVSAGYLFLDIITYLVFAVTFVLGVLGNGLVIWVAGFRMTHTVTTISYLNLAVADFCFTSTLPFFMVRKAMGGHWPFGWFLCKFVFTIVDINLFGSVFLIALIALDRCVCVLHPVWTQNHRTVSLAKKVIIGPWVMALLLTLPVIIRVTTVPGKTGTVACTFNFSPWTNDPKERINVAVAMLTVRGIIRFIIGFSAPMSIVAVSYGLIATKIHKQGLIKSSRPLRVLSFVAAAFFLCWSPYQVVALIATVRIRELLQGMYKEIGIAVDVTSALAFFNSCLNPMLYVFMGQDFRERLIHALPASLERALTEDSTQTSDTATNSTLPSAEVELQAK
In short: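 CHO cells overexpressing human FPR1 (4,000 cells/well) stimulated with 10 µM forskolin plus 200 µM IBMX in the presence of compound (0.020 nM–100 µM, 1% DMSO), 30 min at room temperature. Intracellular cAMP measured by HTRF. Inhibition of cAMP production fitted to a 4-parameter logistic equation.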

Sequence of human FPR2 (P25090 whole entry): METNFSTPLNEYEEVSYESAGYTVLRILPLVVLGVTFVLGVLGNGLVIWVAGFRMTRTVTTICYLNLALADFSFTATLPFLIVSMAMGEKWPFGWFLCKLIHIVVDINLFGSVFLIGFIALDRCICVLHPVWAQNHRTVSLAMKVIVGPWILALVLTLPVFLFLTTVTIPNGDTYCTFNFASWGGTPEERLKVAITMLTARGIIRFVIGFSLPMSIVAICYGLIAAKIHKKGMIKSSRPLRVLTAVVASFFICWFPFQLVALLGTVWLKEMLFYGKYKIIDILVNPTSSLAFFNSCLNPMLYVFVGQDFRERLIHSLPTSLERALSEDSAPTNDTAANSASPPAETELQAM

SMILES | EC50 (human FPR2) [nM] | EC50 (human FPR1) [nM]
COc1cc(C2CCN(CCF)CC2)nc(N2C[C@@H](c3c(F)cc(OC)cc3F)[C@H](NC(=O)c3ccc(OC(F)F)cc3)C2=O)c1 [Example 492] | 8.7 | > 5000
COc1cc(F)c([C@@H]2CN(c3cccn4cc(C)nc34)C(=O)[C@H]2NC(=O)c2ccc(Cl)cc2)c(F)c1 [Example 493] | 2.2 | 270
COc1cc(F)c([C@@H]2CN(c3cccn4cc(CO)nc34)C(=O)[C@H]2NC(=O)c2ccc(Cl)cc2)c(F)c1 [Example 494] | 3.4 | 440
COc1cc(F)c([C@@H]2CN(c3cccn4cc(C5CC5)nc34)C(=O)[C@H]2NC(=O)c2ccc(Cl)cc2)c(F)c1 [Example 495] | 1.6 | 860
COc1cc(F)c([C@@H]2CN(c3cccn4cc(C(C)C)nc34)C(=O)[C@H]2NC(=O)c2ccc(Cl)cc2)c(F)c1 [Example 496] | 3 | 1100
COc1cc(F)c([C@@H]2CN(c3cccn4cc(C(F)(F)F)nc34)C(=O)[C@H]2NC(=O)c2ccc(Cl)cc2)c(F)c1 [Example 497] | 1.2 | 720
COc1cc(C2CCN(C)CC2)nc(N2C[C@@H](c3c(F)cc(OC)cc3F)[C@H](NC(=O)c3ccc(OC(F)F)cc3)C2=O)c1 [Example 498] | 1.8 | > 5000
COc1cc(F)c([C@@H]2CN(c3cc(OCC4CCCO4)ncn3)C(=O)[C@H]2NC(=O)c2ccc(Cl)cc2)c(F)c1 (some centres unmarked) [Example 499] | 29 | 60
COc1cc(F)c([C@@H]2CN(c3cccc(C4=CNCCC4)n3)C(=O)[C@H]2NC(=O)c2ccc(OC(F)F)cc2)c(F)c1 [Example 500] | 2.2 | 710
COc1cc(F)c([C@@H]2CN(c3cccc(C4CCCN(CCO)C4)n3)C(=O)[C@H]2NC(=O)c2ccc(OC(F)F)cc2)c(F)c1 (some centres unmarked) [Example 501] | 1.6 | 2500
COc1cc(F)c([C@@H]2CN(c3cccc(C4CCCN(CCO)C4)n3)C(=O)[C@H]2NC(=O)c2ccc(OC(F)F)cc2)c(F)c1 (some centres unmarked) [Example 502] | 7.7 | 900
COc1cc(F)c([C@H]2[C@H](NC(=O)c3ccc(Cl)cc3)C(=O)N(c3cncn(CC(F)F)c3=O)[C@@H]2C)c(F)c1 [Example 503] | 4.3 | 3500
COc1cc(C2CCN(CCO)CC2)nc(N2C(=O)[C@@H](NC(=O)c3ccc(OC(F)F)cc3)[C@H](c3c(F)cc(OC)cc3F)[C@@H]2C)c1 [Example 504] | 2.2 | 3300
COc1cc(F)c([C@H]2[C@H](NC(=O)c3ccc(OC(F)F)cc3)C(=O)N(c3cccc(P(C)(C)=O)n3)[C@H]2C)c(F)c1 [Example 505] | 100 | 3400
COc1cc(F)c([C@@H]2CN(c3c(C)ccn(C4CCNCC4)c3=O)C(=O)[C@H]2NC(=O)c2ccc(Cl)cc2)c(F)c1 [Example 506] | 0.8 | 68
COc1cc(F)c([C@@H]2CN(c3c(C)ccn(C4CCN(C)C4)c3=O)C(=O)[C@H]2NC(=O)c2ccc(OC(F)F)cc2)c(F)c1 (some centres unmarked) [Example 507] | 2.3 | 150
COc1cc(F)c([C@@H]2CN(c3c(C)ccn(C4CCN(C)C4)c3=O)C(=O)[C@H]2NC(=O)c2ccc(OC(F)F)cc2)c(F)c1 (some centres unmarked) [Example 508] | 6.4 | 110
COc1cc(F)c([C@@H]2CN(c3cc(OCC4CCOC4)ncn3)C(=O)[C@H]2NC(=O)c2ccc(Cl)cc2)c(F)c1 (some centres unmarked) [Example 509] | 41 | 79
COc1cc(F)c([C@@H]2CN(c3cccc(P(C)(C)=O)n3)C(=O)[C@H]2NC(=O)c2ccc(Cl)cc2)c(F)c1 [Example 511] | 66 | 390
COc1cc(F)c([C@H]2[C@H](NC(=O)c3ccc(OC(F)F)cc3)C(=O)N(c3cccc(C4CCCN(C)C4)n3)[C@H]2C)c(F)c1 (some centres unmarked) [Example 512] | 3.7 | 2100
COc1cc(F)c([C@H]2[C@H](NC(=O)c3ccc(OC(F)F)cc3)C(=O)N(c3cccc(C4CCCN(C)C4)n3)[C@H]2C)c(F)c1 (some centres unmarked) [Example 513] | 2.4 | 1500
COc1cc(F)c([C@@H]2CN(c3cncn(C4CCN(C)C4)c3=O)C(=O)[C@H]2NC(=O)c2ccc(Cl)cc2)c(F)c1 (some centres unmarked) [Example 514] | 2.6 | 270
COc1cc(F)c([C@H]2[C@H](NC(=O)c3ccc(OC(F)F)cc3)C(=O)N(c3cccc(C4CCCN(CCO)C4)n3)[C@H]2C)c(F)c1 (some centres unmarked) [Example 515] | 2.1 | 2200
COc1cc(F)c([C@H]2[C@H](NC(=O)c3ccc(OC(F)F)cc3)C(=O)N(c3cccc(C4CCCN(CCO)C4)n3)[C@H]2C)c(F)c1 (some centres unmarked) [Example 516] | 1.3 | 1700
COc1cc(F)c([C@@H]2CN(c3cncn(C(CO)C(F)(F)F)c3=O)C(=O)[C@H]2NC(=O)c2ccc(Cl)cc2)c(F)c1 (some centres unmarked) [Example 517] | 2.8 | 1800

SMILES | EC50 (human FPR2) [nM] | EC50 (human FPR1) [nM]
COc1cc(F)c([C@@H]2CN(c3cncn(C(CO)C(F)(F)F)c3=O)C(=O)[C@H]2NC(=O)c2ccc(Cl)cc2)c(F)c1 (some centres unmarked) [Example 518] | 2 | 3300
COc1cc(F)c([C@@H]2CN(c3cccn4ccnc34)C(=O)[C@H]2NC(=O)c2ccc(Cl)cc2)c(F)c1 [Example 519] | 3.1 | 480
CCn1cnc(C)c(N2C[C@@H](c3c(F)cc(OC)cc3F)[C@H](NC(=O)c3ccc(Cl)cc3)C2=O)c1=O [Example 520] | 4.9 | 1300
COCCn1cnc(C)c(N2C[C@@H](c3c(F)cc(OC)cc3F)[C@H](NC(=O)c3ccc(Cl)cc3)C2=O)c1=O [Example 521] | 9 | 330
COc1cc(F)c([C@@H]2CN(c3c(C)ncn(CC4(C)COC4)c3=O)C(=O)[C@H]2NC(=O)c2ccc(Cl)cc2)c(F)c1 [Example 522] | 5.4 | > 5000
COc1cc(F)c([C@H]2[C@H](NC(=O)c3ccc(OC(F)F)cc3)C(=O)N(c3cccc(C4CCN(C)CC4)n3)[C@H]2C)c(F)c1 [Example 523] | 1.4 | 3600
COc1cc(F)c([C@H]2[C@H](NC(=O)c3ccc(OC(F)F)cc3)C(=O)N(c3cccc(C4CCN(CCO)CC4)n3)[C@H]2C)c(F)c1 [Example 524] | 0.8 | 1400
COc1cc(F)c([C@@H]2CN(c3cccc(C4CCN(C)CC4)n3)C(=O)[C@H]2NC(=O)c2ccc(OC(F)F)cc2)c(F)c1 [Example 525] | 1.4 | 420
COc1cc(F)c([C@H]2[C@H](NC(=O)c3ccc(OC(F)F)cc3)C(=O)N(c3cccc(N4C[C@@H]5C[C@H]4CN5C)n3)[C@H]2C)c(F)c1 [Example 526] | 1.1 | 2300
COc1cc(F)c([C@@H]2CN(c3cccc(C4CCN(CCO)CC4)n3)C(=O)[C@H]2NC(=O)c2ccc(OC(F)F)cc2)c(F)c1 [Example 527] | 1.3 | 770
COc1cc(F)c([C@H]2[C@H](NC(=O)c3ccc(OC(F)F)cc3)C(=O)N(c3cccc(C4CCNCC4)n3)[C@H]2C)c(F)c1 [Example 528] | 0.2 | 600
COc1cc(C2CCNCC2)nc(N2C(=O)[C@@H](NC(=O)c3ccc(OC(F)F)cc3)[C@H](c3c(F)cc(OC)cc3F)[C@@H]2C)c1 [Example 529] | 6.7 | > 5000
COc1cc(F)c([C@@H]2CN(c3c(C)ccn(C4CCNC4)c3=O)C(=O)[C@H]2NC(=O)c2ccc(Cl)cc2)c(F)c1 (some centres unmarked) [Example 530] | 3.1 | 680
COc1cc(F)c([C@@H]2CN(c3cccc(N4C[C@@H]5C[C@H]4CN5C)n3)C(=O)[C@H]2NC(=O)c2ccc(OC(F)F)cc2)c(F)c1 [Example 531] | 1.6 | 3200
COc1cc(F)c([C@@H]2CN(c3ncn(CC(C)C)n3)C(=O)[C@H]2NC(=O)c2ccc(Cl)cc2)c(F)c1 [Example 532] | 2.3 | 630
COc1cc(F)c([C@@H]2CN(c3c(C)ncn(CC(F)F)c3=O)C(=O)[C@H]2NC(=O)c2ccc(Cl)cc2)c(F)c1 [Example 533] | 4 | 900
COc1cc(C2CCNCC2)nc(N2C[C@@H](c3c(F)cc(OC)cc3F)[C@H](NC(=O)c3ccc(OC(F)F)cc3)C2=O)c1 [Example 534] | 3.4 | > 5000
COc1cc(F)c([C@@H]2CN(c3nc(OCC4CCOC4)ccc3F)C(=O)[C@H]2NC(=O)c2ccc(OC(F)F)cc2)c(F)c1 (some centres unmarked) [Example 535] | 1 | 200
COc1cc(F)c([C@@H]2CN(c3cccc(C4CCN(C)CC4)n3)C(=O)[C@H]2NC(=O)c2ccc(OC(F)F)cc2)c(F)c1 [Example 536] | 2.1 | 650
COc1cc(F)c([C@H]2[C@H](NC(=O)c3ccc(OC(F)F)cc3)C(=O)N(c3cccc(C4CCN(CC(F)F)CC4)n3)[C@H]2C)c(F)c1 [Example 537] | 9.9 | 35
COc1cc(C2CCN(C)CC2)nc(N2C(=O)[C@@H](NC(=O)c3ccc(OC(F)F)cc3)[C@H](c3c(F)cc(OC)cc3F)[C@@H]2C)c1 [Example 538] | 1.3 | 2000
COc1cc(C2CCOCC2)nc(N2C(=O)[C@@H](NC(=O)c3ccc(OC(F)F)cc3)[C@H](c3c(F)cc(OC)cc3F)[C@H]2C)c1 [Example 539] | 6.8 | 470
COc1cc(F)c([C@@H]2CN(c3ncn(CC(F)F)n3)C(=O)[C@H]2NC(=O)c2ccc(Cl)cc2)c(F)c1 [Example 541] | 20 | 810
COc1cc(F)c([C@@H]2CN(c3cncn(C4CCOCC4)c3=O)C(=O)[C@H]2NC(=O)c2ccc(Cl)cc2)c(F)c1 [Example 542] | 5.7 | 1200
